Results published in patent US10786429B2, “Preservative removal from eye drops” (University of Florida Research Foundation, Inc., priority 2016, dated 2020).
Counter-ions that a name gives are not always drawn. Marks after values point to notes of the source that are not given here.

Legend:
Format in all cases: physicochemical
[1] = Partition coefficient in HEMA/MAA copolymer gels of various compositions
Method: Gels of […] were synthesized using 2 mL monomer solution, 2.7 mL of water, 10 μL of ethylene glycol dimethacrylate as crosslinker, and 6 mg of Darocur TPO as a photoinitiator. The monomer solution had different fractions of HEMA and MAA (i.e. 60% MAA would be 1.2 mL MAA and 0.8 mL HEMA). Gels were cured under UV light in 100 micron thick molds and subsequently cut into pieces approximately 50 mg in mass. Some gels were loaded with BAK to give a 3× (or 300 ppm) initial concentration and placed into 3 mL solution (either 0.025% Bimatoprost/PBS 1× or 0.2% BAK/PBS). The concentrations in solution were measured using UV-vis spectrophotometry. Upon achieving equilibrium, the gels were placed in 3 mL blank PBS, and release was monitored by UV-vis spectrophotometry. Uptake and release equilibrium concentrations were used to calculate partition coefficients. FIGS. 28 and 29 are plots of the partition coefficient for Bimatoprost and BAK for various gel copolymer compositions.

[2] = Partition coefficient in macroporous pHEMA hydrogel; conditions: for Partition coefficient: 250 mg gel in 12 mL PBS solution, 15 days, mean ± SD, n=3
Method: As indicated above, the absorption percentage of hydrophilic drug is small, whereas a significant amount of hydrophobic drug is uptake by the macroporous pHEMA gel. The high affinity of hydrophobic drug to the gel can be determined by measuring the partition coefficient of the drug in the gel. To measure the partition coefficient, a piece of macroporous pHEMA gel of 250 mg was soaked in 12 mL of drug or BAK solution. After 15 days of soaking, the concentration of the drug or BAK solution was measured by using UV-Vis spectrophotometry. The drug or BAK concentration after soaking indicated the amount of drug or BAK in reference to the initial concentration is that absorbed into the gel. The partition coefficient of timolol and dorzolamide in macroporous pHEMA gel is roughly 15 times smaller than that of BAK, which is excellent separation efficiency. In contrast, the partition coefficients of latanoprost and BAK are pretty high and the separation efficiency of the gel for this mixture is poor.

[3] = Partition coefficient in pHEMA particles prepared using SR9035 as cross-linker; conditions: 100 mg particles in 3.5 mL solution, 9 days
Method: The partition coefficients of timolol, CMC and BAK in pHEMA particles prepared using SR9035 as cross-linker was measured. pHEMA particles (100 mg) were soaked in 3.5 mL of timolol, CMC and BAK solution, which concentration was 0.08 mg/mL, 0.5% and 2.4 mg/mL, respectively. After 9 days of soaking, the concentration of the drug or BAK solution was measured by using UV-Vis spectrophotometry. The drug or BAK concentration after soaking indicated the amount of drug or BAK that absorbed into the gel relative to the initial concentration. The partition coefficient of timolol and CMC in pHEMA particles is much smaller than that of BAK, and should have excellent separation efficiency.

[4] = Langmuir adsorption isotherm fit of equilibrium interfacial surface tension of BAK solutions; conditions: Langmuir model fit
Method: An eye drop bottle's plug (tip) was packed with 0.1 g of p-HEMA particles for Timolol Maleate commercial formulation (Sandoz Inc.) and 0.1 g of p-HEMA/MAA particles for Bimatoprost commercial formation (Allegran Inc.). Approximately 0.5 mL of commercial formulation was dosed from the eye drop bottle for each measurement with 0.5 mL of a filtered formulation withdrawn by a standard 3 mL syringe for pendant drop measurements. A drop shape analysis was conducted by the Tensiometer to extract surface tension data of the filtered formulation. A calibration curve with equilibrium interfacial surface tension data as a function of BAK concentration was used to estimate concentrations and fractional BAK removal from the filtered eye drop formulation. Periodic surface tension measurements of the formulations were done to monitor fractional BAK removal.
The steady state Langmuir adsorption isotherm model and Langmuir surface equation of state were used to fit the equilibrium interfacial surface tension data are given below:
[formula] [formula] Where a least square error minimization protocol was used to fit the experimental equilibrium surface tension values and the calculated estimates using the above model. […] Benzalkonium Chloride Removal from Commercial Bimatoprost Formulation (Allegran Inc.)

[5] = Partition coefficient of BAK in pHEMA particles prepared by heat-initiated polymerization
[6] = Partition and adsorption into pHEMA matrix (general statement)

Compound	partitioning between gel and solution (in words) [1]	Partition coefficient [2]	partition coefficient, times smaller than that of BAK [2]	Partition coefficient [3]	further results
CCNC(=O)CCC/C=C\C[C@@H]1[C@@H](/C=C/[C@@H](O)CCc2ccccc2)[C@H](O)C[C@@H]1O [Bimatoprost]	tends to remain in solution				
C[C@@H]1C[C@H]2[C@@H]3CCC4=CC(=O)C=C[C@]4(C)[C@@]3(F)[C@@H](O)C[C@]2(C)[C@@]1(O)C(=O)CO [Dexamethasone, dexamethasone]		33.53 ± 1.31			
CCN[C@H]1C[C@H](C)S(=O)(=O)c2sc(S(N)(=O)=O)cc21 [Dorzolamide, dorzolamide hydrochloride]		7.59 ± 0.56	roughly 15 times		
CC(C)OC(=O)CCC/C=C\C[C@@H]1[C@@H](CC[C@@H](O)CCc2ccccc2)[C@H](O)C[C@@H]1O [Latanoprost, latanoprost]		90.18			
CC(C)(C)NC[C@H](O)COc1nsnc1N1CCOCC1 [Timolol, timolol maleate]		6.49	roughly 15 times	5.59 ± 0.13^a	
Benzalkonium Chloride [BAK]	strongly partitions into the gel			~300	maximum surface coverage Γ∞ (fit parameter) [4]: 0.003309 mol/m^2; ratio of kinetic rate constants β/α (fit parameter) [4]: 462.14 m^3/mol; Partition coefficient [5]: 200-250; adsorption time on pHEMA ([6]; compared with transit time): < 3 s; partition coefficient into pHEMA matrix ([6]; depends on BAK concentration and structure of pHEMA matrix): 100-500
